{
  "source": "ChEMBL document CHEMBL1135057",
  "about": "“A combinatorial library of indinavir analogues and its in vitro and in vivo studies” (Bioorg Med Chem Lett, 2002)",
  "key": {"[1]": {"assay": "Tested for the pharmacokinetic data, maximum concentration (Cmax) in dog", "format": "ADME, organism-based, Canis lupus familiaris", "conditions": "in vivo"}, "[2]": {"assay": "Tested for the pharmacokinetic data, maximum concentration (Cmax) in dog at dosage of 10 mpk", "format": "ADME, organism-based, Canis lupus familiaris", "parameters": "dose 10 mpk", "conditions": "in vivo, 10 mg/kg"}, "[3]": {"assay": "Tested for the half life period in dog", "format": "ADME, organism-based, Canis lupus familiaris", "conditions": "in vivo"}, "[4]": {"assay": "Tested for the half life period in dog at dosage of 10 mpk", "format": "ADME, organism-based, Canis lupus familiaris", "conditions": "in vivo, 10 mg/kg"}, "[5]": {"assay": "Tested for the pharmacokinetic data, area under the curve of concentration versus time in dog", "format": "ADME, organism-based, Canis lupus familiaris", "conditions": "in vivo"}, "[6]": {"assay": "Tested for the pharmacokinetic data, area under the curve of concentration versus time in dog at dosage of 10 mpk", "format": "ADME, organism-based, Canis lupus familiaris", "conditions": "in vivo, 10 mg/kg"}, "[7]": {"assay": "Tested for the pharmacokinetic data, time required to reach Cmax (Tmax) in dog at dosage of 10 mpk", "format": "ADME, organism-based, Canis lupus familiaris", "conditions": "in vivo, 10 mg/kg"}, "[8]": {"species": "Canis familiaris", "assay": "Tested for the pharmacokinetic data, time required to reach Cmax (Tmax) in dog", "format": "ADME, organism-based, Canis lupus familiaris", "conditions": "in vivo"}, "[9]": {"molecular_target": "T1, Human immunodeficiency virus type 1 protease (Human immunodeficiency virus 1, UniProt Q72874)", "assay": "Tested in vitro for potential potency against PI-resistant HIV virus by A-44 mutant enzyme variant"}, "[10]": {"molecular_target": "T1, Human immunodeficiency virus type 1 protease", "assay": "Tested in vitro for the ability to inhibit cleavage of a substrate by the wild type HIV-1 protease"}, "[11]": {"system": "Human immunodeficiency virus 1", "assay": "Inhibition of the spread of viral infection in MT-4 human T-lymphoid cells infected by IIIb isolate", "format": "functional", "conditions": "Human immunodeficiency virus 1, T-lymphoid; read-out: CIC95"}, "[12]": {"molecular_target": "T1, Human immunodeficiency virus type 1 protease", "assay": "In vitro inhibitory activity against mutant HIV-1 (A-44)protease"}, "[13]": {"molecular_target": "T1, Human immunodeficiency virus type 1 protease", "assay": "In vitro inhibitory activity against wild type HIV-1 protease"}},
  "note": "pIC50: −log10 of the molar value.",
  "data": [
    {"molecule": "CC(C)(C)NC(=O)[C@@H]1CN(Cc2cccnc2)CCN1C[C@@H](O)C[C@@H](CC1CCCCC1)C(=O)NC1c2cccc(Cl)c2C[C@H]1O", "note": "(single isomer, unassigned)", "values": [
      {"measurement": "Cmax", "setting": "[1]", "result": 0.182, "unit": "µM"},
      {"measurement": "Cmax", "setting": "[2]", "result": 0.36, "unit": "µM"},
      {"measurement": "half-life", "setting": "[3]", "result": 81, "unit": "min"},
      {"measurement": "half-life", "setting": "[4]", "result": 53, "unit": "min"},
      {"measurement": "AUC", "setting": "[5]", "result": 235, "unit": "nM·h"},
      {"measurement": "AUC", "setting": "[6]", "result": 480, "unit": "nM·h"},
      {"measurement": "Tmax", "setting": "[7]", "result": 35, "unit": "min"},
      {"measurement": "T max", "setting": "[8]", "result": 40, "unit": "min"}
    ]},
    {"molecule": "CN(C)c1ccc2cc(S(=O)(=O)N3CCN(C[C@@H](O)C[C@@H](Cc4ccccc4)C(=O)N[C@H]4c5ccccc5C[C@H]4O)[C@H](C(=O)NC(C)(C)C)C3)ccc2n1", "values": [
      {"measurement": "pIC50", "setting": "[9]", "result": "> 9.22"},
      {"measurement": "pIC50", "setting": "[10]", "result": "> 10.00"},
      {"measurement": "IC95", "setting": "[11]", "result": 0.0125, "unit": "µM"}
    ]},
    {"molecule": "Cn1nc(C(F)(F)F)cc1-c1ccc(CN2CCN(C[C@@H](O)C[C@@H](Cc3ccccc3)C(=O)NC3c4ccccc4C[C@H]3O)[C@H](C(=O)NC(C)(C)C)C2)s1", "note": "(single isomer, unassigned)", "values": [
      {"measurement": "pIC50", "setting": "[9]", "result": "> 9.22"},
      {"measurement": "pIC50", "setting": "[10]", "result": "> 10.00"},
      {"measurement": "IC95", "setting": "[11]", "result": 0.006, "unit": "µM"}
    ]},
    {"molecule": "CC(C)(C)NC(=O)[C@@H]1CN(Cc2ncc(-c3ccccc3)s2)CCN1C[C@@H](O)C[C@@H](Cc1ccccc1)C(=O)N[C@H]1c2ccccc2C[C@H]1O", "values": [
      {"measurement": "pIC50", "setting": "[9]", "result": "> 9.22"},
      {"measurement": "pIC50", "setting": "[10]", "result": "> 10.00"},
      {"measurement": "IC95", "setting": "[11]", "result": 0.025, "unit": "µM"}
    ]},
    {"molecule": "C[C@@H]1CC[C@@H](O)C1NC(=O)[C@H](CC1CCCCC1)C[C@H](O)CN1CCN(Cc2cccnc2)C[C@H]1C(=O)NC(C)(C)C", "note": "(single isomer, unassigned)", "values": [
      {"measurement": "Cmax", "setting": "[1]", "result": 0.483, "unit": "µM"},
      {"measurement": "Cmax", "setting": "[2]", "result": 3.76, "unit": "µM"},
      {"measurement": "half-life", "setting": "[3]", "result": 42.5, "unit": "min"},
      {"measurement": "half-life", "setting": "[4]", "result": 49, "unit": "min"},
      {"measurement": "AUC", "setting": "[5]", "result": 504, "unit": "nM·h"},
      {"measurement": "AUC", "setting": "[6]", "result": 3830, "unit": "nM·h"},
      {"measurement": "Tmax", "setting": "[7]", "result": 25, "unit": "min"},
      {"measurement": "T max", "setting": "[8]", "result": 40, "unit": "min"}
    ]},
    {"molecule": "C[C@@H]1CC[C@@H](O)C1NC(=O)[C@H](CC1CC1)C[C@H](O)CN1CCN(Cc2cccnc2)C[C@H]1C(=O)NC(C)(C)C", "note": "(single isomer, unassigned)", "values": [
      {"measurement": "Cmax", "setting": "[1]", "result": 0.996, "unit": "µM"},
      {"measurement": "Cmax", "setting": "[2]", "result": 6.62, "unit": "µM"},
      {"measurement": "half-life", "setting": "[3]", "result": 19, "unit": "min"},
      {"measurement": "half-life", "setting": "[4]", "result": 41, "unit": "min"},
      {"measurement": "AUC", "setting": "[5]", "result": 839, "unit": "nM·h"},
      {"measurement": "AUC", "setting": "[6]", "result": 5280, "unit": "nM·h"},
      {"measurement": "Tmax", "setting": "[7]", "result": 45, "unit": "min"},
      {"measurement": "T max", "setting": "[8]", "result": 40, "unit": "min"}
    ]},
    {"molecule": "Cn1cc(CN2CCN(C[C@@H](O)C[C@@H](Cc3ccccc3)C(=O)N[C@@H]3c4ccccc4C[C@H]3O)[C@H](C(=O)NC(C)(C)C)C2)ccc1=O", "values": [
      {"measurement": "IC95", "setting": "[11]", "result": 0.4, "unit": "µM"},
      {"measurement": "pIC50", "setting": "[12]", "result": 6.88},
      {"measurement": "pIC50", "setting": "[13]", "result": 8.66}
    ]},
    {"molecule": "CC(C)(C)NC(=O)[C@@H]1CN(Cc2cc3ccccc3o2)CCN1C[C@@H](O)C[C@@H](Cc1ccccc1)C(=O)NC1c2ccccc2C[C@H]1O", "note": "(some centres not stated)", "values": [
      {"measurement": "IC95", "setting": "[11]", "result": 0.05, "unit": "µM"},
      {"measurement": "pIC50", "setting": "[12]", "result": 7.62},
      {"measurement": "pIC50", "setting": "[13]", "result": 9.31}
    ]},
    {"molecule": "CC1=CSC2C(CN3CCN(C[C@@H](O)C[C@@H](Cc4ccccc4)C(=O)N[C@@H]4c5ccccc5C[C@H]4O)[C@H](C(=O)NC(C)(C)C)C3)N=CN12", "note": "(some centres not stated)", "values": [
      {"measurement": "IC95", "setting": "[11]", "result": "> 0.4", "unit": "µM"},
      {"measurement": "pIC50", "setting": "[12]", "result": 6.42},
      {"measurement": "pIC50", "setting": "[13]", "result": 8.17}
    ]}
  ]
}
